According to patent publication US20240116921A1, “LACTAM (HETERO)[…] DERIVATIVES AS INHIBITORS OF ERBB2” (EnLiven Therapeutics, Inc., priority 2020, published 2024):

What was measured:
[1] = molecular target: T1, phosphorylated ERBB2 (pERBB2) (Homo sapiens, UniProt P04626); test: Detection of phosphorylated ERBB2 (pERBB2) by ELISA in BT-474 cells; type: cell-based; settings: four hours incubation
T1 construct: endogenous in cells; host or cells: BT-474
Description: BT-474 cells were seeded into a 96-well at 2.0*10^4 cells/100 μl/well.
Compounds were dissolved and serially diluted in DMSO. The compounds were then were added, mixed, and incubated for four hours at 37° C., 5% CO2. Compounds were added using four-fold dilutions at final concentrations ranging from 10 μM to 0.01 nM.
Following the four hour incubation with compounds, cell lysates were prepared.
Plates were centrifuged for 5 min at 3000 RPM, and supernatant was removed from each well. Cells were washed 3 times by resuspension in 150 μl PBS, followed by centrifugation and removal of the supernatant, as above. […] Cells were incubated with lysis buffer for 1 hour at 4° C., and then stored at −80° C.
Enzyme-linked immunosorbent assays (ELISA) were performed to measure phosphorylated ERBB2 levels. […] The next day, plates were washed with PBS+0.05% Tween20 (PBST). 150 μl of 5% BSA blocking solution was added for 1 hour at room temperature, with shaking. Plates were washed with PBST. Cell lysates were thawed and 100 μl of lysate was added to the ELISA plate. The plates were incubated for 2 hours at room temperature, with shaking. […] Plates were incubated for 1 hour at room temperature, with shaking. Plates were then washed with PBST, and 100 μl TMB substrate solution (R&D Systems, cat #DY999) was added. Plate were incubated in the dark for 20 minutes at room temperature. 50 μl of Stop solution (R&D Systems, cat #DY994) (50 μl) was added to each well and mixed.
Optical density at 450 nm was read on an EnSpire plate reader (Perkin Elmer). The remaining kinase activity by calculated using the following formula: % Relative activity=100×(A450sample−A450LC)/(A450HC−A450LC). The low and high control values (“LC” and “HC”) were generated from lysate from wells without cells or with cells treated with 0.1% DMSO, respectively.

[2] = molecular target: T2, phosphorylated EGFR (pEGFR) (Homo sapiens, UniProt P00533); test: Detection of phosphorylated EGFR (pEGFR) in EGF-stimulated A431 cells; type: cell-based; settings: A431 cells (10% FBS), 4 hours incubation, EGF 30 ng/mL 10 minutes, AlphaLISA
T2 construct: performed to measure phosphorylated EGFR levels using A431 cells (10% FBS); endogenous in cells; host or cells: A431
T2 sequence (P00533 25-1210): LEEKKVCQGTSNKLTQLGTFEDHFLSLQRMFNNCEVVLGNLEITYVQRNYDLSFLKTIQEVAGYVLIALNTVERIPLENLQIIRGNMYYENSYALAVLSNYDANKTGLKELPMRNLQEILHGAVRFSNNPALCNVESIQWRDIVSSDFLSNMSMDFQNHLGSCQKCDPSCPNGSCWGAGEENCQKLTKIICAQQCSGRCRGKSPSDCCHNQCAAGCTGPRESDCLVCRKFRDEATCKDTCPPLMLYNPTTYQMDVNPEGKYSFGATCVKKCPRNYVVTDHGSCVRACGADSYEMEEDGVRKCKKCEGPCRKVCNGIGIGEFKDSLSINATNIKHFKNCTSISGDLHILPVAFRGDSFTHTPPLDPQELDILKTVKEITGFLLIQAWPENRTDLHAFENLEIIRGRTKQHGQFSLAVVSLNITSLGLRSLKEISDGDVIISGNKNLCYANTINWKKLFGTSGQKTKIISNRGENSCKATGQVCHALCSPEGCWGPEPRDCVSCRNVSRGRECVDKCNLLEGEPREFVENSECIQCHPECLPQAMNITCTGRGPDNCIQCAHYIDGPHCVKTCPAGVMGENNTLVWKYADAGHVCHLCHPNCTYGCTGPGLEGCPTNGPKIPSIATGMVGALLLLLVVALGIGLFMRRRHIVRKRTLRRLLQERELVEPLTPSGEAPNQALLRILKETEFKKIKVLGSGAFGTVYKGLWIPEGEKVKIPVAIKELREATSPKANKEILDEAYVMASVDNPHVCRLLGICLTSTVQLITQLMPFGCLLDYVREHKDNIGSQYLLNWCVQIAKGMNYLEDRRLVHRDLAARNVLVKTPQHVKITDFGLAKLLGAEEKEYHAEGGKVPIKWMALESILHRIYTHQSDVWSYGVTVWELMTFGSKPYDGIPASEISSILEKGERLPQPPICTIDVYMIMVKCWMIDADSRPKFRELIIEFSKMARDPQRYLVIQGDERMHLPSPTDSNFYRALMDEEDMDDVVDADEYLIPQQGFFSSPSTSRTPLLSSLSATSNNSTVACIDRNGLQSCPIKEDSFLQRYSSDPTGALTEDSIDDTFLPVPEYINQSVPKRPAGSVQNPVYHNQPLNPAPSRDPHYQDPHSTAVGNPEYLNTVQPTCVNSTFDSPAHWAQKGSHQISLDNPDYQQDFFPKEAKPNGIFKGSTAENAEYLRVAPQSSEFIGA
Description: Enzyme-linked immunosorbent assays (ELISA) were performed to measure phosphorylated EGFR levels using A431 cells (10% FBS). A431 (1.0*10^4 cells/40 μl/well) cells were seeded in 384 well. Compounds were dissolved in DMSO, serially diluted in DMSO and then were added, mixed, and incubated for 4 hours at 37° C., 5% CO2. Following the 4-hours incubation, cells were stimulated for 10 minutes with EGF (Invitrogen, cat #PHG0311) at a final concentration of 30 ng/mL in the incubator. The media was aspirated and cells were lysed in 10 μL lysis buffer with protease and phosphatase inhibitors (PerkinElmer, cat #ALSU-PEGFR-A50K). The plates were placed on a shaker for 5 minutes and then incubated for 30 min at 4° C. for complete lysis. The lysate was transferred to an Optiplate (Perkin Elmer, cat #6007290).
Acceptor mix (PerkinElmer, cat #ALSU-PEGFR-A50K) was prepared just before use and 5 μL was dispensed to all the wells, followed by a 1.5-2 h incubation at room temperature in dark. The donor mix (PerkinElmer, cat #ALSU-PEGFR-A50K) was prepared under low light conditions prior to use and […] of donor mix was added to all the wells under subdued lighting or green filters. The plates were placed on a shaker for 5 min, sealed, and incubated overnight at room temperature in dark. Plates were read on the Envision (PerkinElmer) using standard AlphaLISA settings.
The percentage of inhibition on EGFR phosphorylation was calculated following equation: % Inhibition=100×(LumHC−LumSample)/(LumHC−LumLC). The low and high controls (LC/HC) are generated from lysate from wells with cells treated with DMSO or […] Staurosporine (BioAustralis, cat #BIA-S1086), […]. IC50 values were calculated by fitting the Curve using XLfit (v5.3.1.3), equation 201: Y=Bottom+(Top−Bottom)/(1+10^((Log IC50−X)*HillSlope)).

[3] = molecular target: Ba/F3 ERBB2 A775_G776insYVMA (Homo sapiens, UniProt P04626, DUP772-775, cells depend on it); test: Cell viability assay, Ba/F3 ERBB2 A775_G776insYVMA; type: cell-based, mouse; settings: Ba/F3 ERBB2 YVMA cells, cell viability, 72 hours, CellTiter Glo; Table B5; read-out: Ba/F3 ERBB2 YVMA, IC50
Sequence of Ba/F3 ERBB2 A775_G776insYVMA (P04626 with tags, fused parts or gaps DUP772-775): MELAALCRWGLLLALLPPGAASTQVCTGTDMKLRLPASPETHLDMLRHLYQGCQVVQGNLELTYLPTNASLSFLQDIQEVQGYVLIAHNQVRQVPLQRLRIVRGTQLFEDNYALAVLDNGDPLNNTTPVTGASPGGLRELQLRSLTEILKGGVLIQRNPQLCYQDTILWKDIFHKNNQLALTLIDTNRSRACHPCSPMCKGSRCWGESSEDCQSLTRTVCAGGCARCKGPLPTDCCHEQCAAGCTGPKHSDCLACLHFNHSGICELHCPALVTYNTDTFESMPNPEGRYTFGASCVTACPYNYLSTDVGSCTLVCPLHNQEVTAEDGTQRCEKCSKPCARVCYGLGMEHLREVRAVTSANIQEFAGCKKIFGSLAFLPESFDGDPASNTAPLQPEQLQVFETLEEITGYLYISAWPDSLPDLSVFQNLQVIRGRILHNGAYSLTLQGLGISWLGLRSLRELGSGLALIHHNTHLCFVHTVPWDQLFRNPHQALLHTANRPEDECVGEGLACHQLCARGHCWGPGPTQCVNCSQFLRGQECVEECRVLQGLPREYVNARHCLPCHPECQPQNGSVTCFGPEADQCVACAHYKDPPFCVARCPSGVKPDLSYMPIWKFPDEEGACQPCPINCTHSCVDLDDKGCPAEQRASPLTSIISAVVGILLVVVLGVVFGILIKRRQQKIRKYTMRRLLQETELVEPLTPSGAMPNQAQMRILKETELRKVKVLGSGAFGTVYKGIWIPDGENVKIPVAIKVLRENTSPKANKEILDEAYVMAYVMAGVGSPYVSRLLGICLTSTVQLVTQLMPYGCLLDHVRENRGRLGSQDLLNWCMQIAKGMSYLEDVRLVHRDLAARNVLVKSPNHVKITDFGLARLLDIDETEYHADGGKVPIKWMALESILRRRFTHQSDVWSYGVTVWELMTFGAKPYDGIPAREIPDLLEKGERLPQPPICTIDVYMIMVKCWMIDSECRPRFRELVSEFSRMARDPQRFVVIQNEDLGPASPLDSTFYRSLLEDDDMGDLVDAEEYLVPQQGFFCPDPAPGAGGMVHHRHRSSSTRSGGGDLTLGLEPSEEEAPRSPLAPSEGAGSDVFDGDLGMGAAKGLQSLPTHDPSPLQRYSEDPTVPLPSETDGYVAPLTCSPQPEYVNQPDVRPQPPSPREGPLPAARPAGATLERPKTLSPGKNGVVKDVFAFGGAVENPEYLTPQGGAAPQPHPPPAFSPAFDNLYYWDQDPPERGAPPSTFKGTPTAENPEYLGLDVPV
Description: Cells were treated with compounds, and cell viability was measured as a metric of kinase inhibition.
The Ba/F3 cell line is IL-3-dependent mouse cell line derived from the C3H mouse strain. Ba/F3 cell lines were engineered to express human ERBB2 or EGFR kinases, rendering the cells IL-3 independent. The lines were generated via retroviral transduction utilizing a Moloney murine leukemia virus (MMLV) promoter, and constructs are stably integrated into the cell genome. The sequences of the ERBB2 and EGFR genes used were NCBI Reference Sequences NM_004448.3 and NM_005228.3, respectively.
Similarly, Ba/F3 cell lines engineered to express EGFR, ERBB2, or ERBB2 mutants were grown, harvested, counted and seeded at 3000 cells per well in 96-well plates. A subset of wells contained media only (low control, “LC”).
Table B1 provides the growth media and number of cells seeded per well for the each cell line.
Plates were placed in a 37° C., 5% CO2 incubator for 72 hours. Plates were then removed from the incubator and equilibrated for 15 minutes at room temperature. 40 μl of CellTiter Glo reagent (Promega) was added to measure the relative level of metabolically active cells by quantifying intracellular ATP concentrations. Plates were incubated for 30 minutes at room temperature, and luminescence was measured. […] Graphical curves were fitted using a nonlinear regression model with a sigmoidal dose response.

T1 sequence (P04626 23-1255): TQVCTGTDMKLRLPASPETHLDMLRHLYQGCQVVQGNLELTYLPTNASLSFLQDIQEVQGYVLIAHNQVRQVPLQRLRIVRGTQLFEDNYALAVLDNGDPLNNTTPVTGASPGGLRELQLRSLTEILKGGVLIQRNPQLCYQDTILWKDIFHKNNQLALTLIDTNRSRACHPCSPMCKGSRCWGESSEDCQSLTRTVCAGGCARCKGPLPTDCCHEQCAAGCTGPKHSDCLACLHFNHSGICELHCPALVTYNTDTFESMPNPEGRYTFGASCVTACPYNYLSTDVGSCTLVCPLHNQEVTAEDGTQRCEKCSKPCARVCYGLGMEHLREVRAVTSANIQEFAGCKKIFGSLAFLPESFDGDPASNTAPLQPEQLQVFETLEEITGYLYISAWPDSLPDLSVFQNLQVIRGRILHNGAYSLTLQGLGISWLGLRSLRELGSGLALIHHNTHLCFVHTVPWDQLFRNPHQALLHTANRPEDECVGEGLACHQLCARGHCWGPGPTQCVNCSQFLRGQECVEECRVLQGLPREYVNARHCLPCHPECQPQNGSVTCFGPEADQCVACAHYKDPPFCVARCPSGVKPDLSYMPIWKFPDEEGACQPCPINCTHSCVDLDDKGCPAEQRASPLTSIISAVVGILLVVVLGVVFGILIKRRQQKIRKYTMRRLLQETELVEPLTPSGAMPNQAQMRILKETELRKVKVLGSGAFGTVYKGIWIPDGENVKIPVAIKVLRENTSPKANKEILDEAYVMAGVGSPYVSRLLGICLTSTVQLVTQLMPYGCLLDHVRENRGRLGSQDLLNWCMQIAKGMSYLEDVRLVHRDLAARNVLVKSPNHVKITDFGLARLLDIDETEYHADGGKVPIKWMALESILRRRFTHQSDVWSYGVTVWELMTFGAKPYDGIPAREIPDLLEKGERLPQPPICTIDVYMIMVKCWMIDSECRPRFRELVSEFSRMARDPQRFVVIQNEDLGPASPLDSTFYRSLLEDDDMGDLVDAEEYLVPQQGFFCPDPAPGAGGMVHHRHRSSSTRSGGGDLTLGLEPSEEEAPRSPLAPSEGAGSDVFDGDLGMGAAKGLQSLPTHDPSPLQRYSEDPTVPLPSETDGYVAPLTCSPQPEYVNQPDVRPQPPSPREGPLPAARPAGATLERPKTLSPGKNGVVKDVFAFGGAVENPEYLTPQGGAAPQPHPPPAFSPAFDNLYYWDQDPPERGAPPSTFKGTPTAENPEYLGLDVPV

Compound	IC50 [1] [nM]	IC50 [2] [nM]	GI50 [3] [nM]
Cc1cc(Nc2ncnc3ccc(N4CCC(=CCN(C)C)C4=O)cc23)ccc1Oc1ccn2ncnc2c1 (single isomer, unassigned) [Compound 17, (Z)-3-[2-(dimethylamino)ethylidene]-1-[4-[(3-methyl-4-[[1,2,4]triazolo[1,5-a]pyridin-7-yloxy]phenyl)amino]quinazolin-6-yl]pyrrolidin-2-one]	19.7	> 10000	–
CC1CN(c2cc3c(Nc4ccc(Oc5ccc6c(c5)nnn6C)cc4)ncnc3cn2)C(=O)/C1=C/CN(C)C (single isomer, unassigned) [Compound 136]	72.6	1670	18
CC1CN(c2cc3c(Nc4ccc(Oc5ccc6c(c5)nnn6C)cc4)ncnc3cn2)C(=O)/C1=C/CN(C)C (single isomer, unassigned) [Compound 137]	4110	> 10000	473
C=C1C(=O)N(c2ccc3ncnc(Nc4ccc(Oc5ccn6ncnc6c5)c(C)c4)c3c2)C2CC12 (single isomer, unassigned) [Example S21, Enantiomer # 1, 2-{4-[(3-methyl-4-{[1,2,4]triazolo[1,5-a]pyridin-7-yloxy}phenyl)amino]quinazolin-6-yl}-4-methylidene-2-azabicyclo[3.1.0]hexan-3-one]	20.8	538	–
C=C1C(=O)N(c2ccc3ncnc(Nc4ccc(Oc5ccn6ncnc6c5)c(C)c4)c3c2)C2CC12 (single isomer, unassigned) [Example S21, Enantiomer # 2, 2-{4-[(3-methyl-4-{[1,2,4]triazolo[1,5-a]pyridin-7-yloxy}phenyl)amino]quinazolin-6-yl}-4-methylidene-2-azabicyclo[3.1.0]hexan-3-one]	22.3	1980	–
C=C1C(=O)N(c2ccc3ncnc(Nc4ccc(Oc5ccc6c(c5)ncn6C)c(C)c4)c3c2)C2CC12 (single isomer, unassigned) [Example S33, Enantiomer # 1, 2-[4-({3-methyl-4-[(1-methyl-1,3-benzodiazol-5-yl)oxy]phenyl}amino)quinazolin-6-yl]-4-methylidene-2-azabicyclo[3.1.0]hexan-3-one]	23.2	1090	7.57
C=C1C(=O)N(c2ccc3ncnc(Nc4ccc(Oc5ccc6c(c5)ncn6C)c(C)c4)c3c2)C2CC12 (single isomer, unassigned) [Example S33, Enantiomer # 2, 2-[4-({3-methyl-4-[(1-methyl-1,3-benzodiazol-5-yl)oxy]phenyl}amino)quinazolin-6-yl]-4-methylidene-2-azabicyclo[3.1.0]hexan-3-one]	24.9	520	7.6
C=C1C(=O)N(c2ccc3ncnc(Nc4ccc(Cc5ccn6ncnc6c5)c(C)c4)c3c2)C2CC12 (single isomer, unassigned) [Example S79, Enantiomer #1, 2-(4-((4-([1,2,4]triazolo[1,5-a]pyridin-7-ylmethyl)-3-methylphenyl)amino)quinazolin-6-yl)-4-methylene-2-azabicyclo[3.1.0]hexan-3-one]	36.6	6100	32.1
C=C1C(=O)N(c2ccc3ncnc(Nc4ccc(Cc5ccn6ncnc6c5)c(C)c4)c3c2)C2CC12 (single isomer, unassigned) [Example S79, Enantiomer #2, 2-(4-((4-([1,2,4]triazolo[1,5-a]pyridin-7-ylmethyl)-3-methylphenyl)amino)quinazolin-6-yl)-4-methylene-2-azabicyclo[3.1.0]hexan-3-one]	15.3	798	13.7
Cc1cc(Nc2ncnc3cnc(N4CC(C)/C(=C\CN(C)C)C4=O)cc23)ccc1Oc1ccc2c(c1)nnn2C (single isomer, unassigned) [Example S86, Enantiomer #1, (3E)-3-[2-(dimethylamino)ethylidene]-4-methyl-1-[4-({3-methyl-4-[(1-methyl-1,2,3-benzotriazol-5-yl)oxy]phenyl}amino)pyrido[3,4-d]pyrimidin-6-yl]pyrrolidin-2-one]	11.5	574	2.59
Cc1cc(Nc2ncnc3cnc(N4CC(C)/C(=C\CN(C)C)C4=O)cc23)ccc1Oc1ccc2c(c1)nnn2C (single isomer, unassigned) [Example S86, Enantiomer #2, (3E)-3-[2-(dimethylamino)ethylidene]-4-methyl-1-[4-({3-methyl-4-[(1-methyl-1,2,3-benzotriazol-5-yl)oxy]phenyl}amino)pyrido[3,4-d]pyrimidin-6-yl]pyrrolidin-2-one]	138	> 10000	240
C=C1CCN(c2ccc3ncnc(Nc4ccc(Sc5ccn6ncnc6c5)c(C)c4)c3c2)C1=O [Compound 13, 1-[4-[(3-methyl-4-[[1,2,4]triazolo[1,5-a]pyridin-7-ylsulfanyl]phenyl)amino]quinazolin-6-yl]-3-methylidenepyrrolidin-2-one]	12.5	571	–
C=C1C(=O)N(c2ccc3ncnc(Nc4ccc(Oc5ccn6ncnc6c5)c(C)c4)c3c2)C[C@@H]1C [Compound 19, (R)-1-(4-((4-([1,2,4]triazolo[1,5-a]pyridin-7-yloxy)-3-methylphenyl)amino)quinazolin-6-yl)-4-methyl-3-methylenepyrrolidin-2-one]	25.2	5630	–
C=C1C(=O)N(c2ccc3ncnc(Nc4ccc(Oc5ccn6ncnc6c5)c(C)c4)c3c2)C[C@H]1C [Compound 20, (S)-1-(4-(4-([1,2,4]triazolo[1,5-a]pyridin-7-yloxy)-3-methylphenylamino)quinazolin-6-yl)-4-methyl-3-methylenepyrrolidin-2-one]	12	586	–
C=C1CCN(c2ccc3ncnc(Nc4ccc(Oc5ccn6ncnc6c5)c(C)c4)c3n2)C1=O [Compound 23, 1-{4-[(3-methyl-4-{[1,2,4]triazolo[1,5-a]pyridin-7-yloxy}phenyl)amino]pyrido[3,2-d]pyrimidin-6-yl}-3-methylidenepyrrolidin-2-one]	23.2	6150	–
